Source: patent publication US5594022A, “Tachykinin antagonists” (Warner-Lambert Company, priority 1994, dated 1997)
Entries after “also recorded” stand apart in the source; their conditions may differ.

Experiments:
NK1 receptor [1] = conditions: literature; cited from earlier work
[2] = molecular target: T1, NK1 receptor (Guinea Pig Ileum) (Cavia porcellus, UniProt P30547); experiment: NK1 antagonist activity, guinea pig ileum; conditions: read-out: NK1 Antagonist Activity pkB/pA2, Guinea Pig Ileum (converted)
T1 construct: Ileum; from tissue; host or cells: guinea pig ileum

NK1 receptor [3] = molecular target: T2, NK1 receptor (Cavia porcellus, UniProt P30547); experiment: In vitro NK1 receptor binding ([125I] Bolton Hunter Substance-P, guinea pig cerebral cortex membranes); conditions: Binding IC50, In Vitro NK1 Receptor Binding, [125I-BH]Substance-P 0.1 nM
T2 construct: guinea pig cerebral cortex membranes; from tissue; host or cells: guinea pig cerebral cortex membranes
Experimental: The compounds of the invention were also evaluated in three tachykinin binding assays.

[4] = molecular target: T3, NK1 receptor (Guinea Pig Trachea) (Cavia porcellus, UniProt P30547); experiment: NK1 antagonist activity, guinea pig trachea; conditions: read-out: NK1 Antagonist Activity pkB/pA2, Guinea Pig Trachea (converted)
T3 construct: Trachea; from tissue; host or cells: guinea pig trachea

NK1 receptor [5] = molecular target: T2, NK1 receptor; experiment: Antagonism of substance-P methylester in a number of in vitro NK1 preparations; set-up: species or system guinea pig
Description: Therefore, it could be of use in therapeutic disorders where attenuation of the NK1 receptor response is an appropriate form of intervention.

NK2 receptors = conditions: literature; cited from earlier work
NK3 receptors = conditions: literature; cited from earlier work

T2 sequence (P30547 whole entry): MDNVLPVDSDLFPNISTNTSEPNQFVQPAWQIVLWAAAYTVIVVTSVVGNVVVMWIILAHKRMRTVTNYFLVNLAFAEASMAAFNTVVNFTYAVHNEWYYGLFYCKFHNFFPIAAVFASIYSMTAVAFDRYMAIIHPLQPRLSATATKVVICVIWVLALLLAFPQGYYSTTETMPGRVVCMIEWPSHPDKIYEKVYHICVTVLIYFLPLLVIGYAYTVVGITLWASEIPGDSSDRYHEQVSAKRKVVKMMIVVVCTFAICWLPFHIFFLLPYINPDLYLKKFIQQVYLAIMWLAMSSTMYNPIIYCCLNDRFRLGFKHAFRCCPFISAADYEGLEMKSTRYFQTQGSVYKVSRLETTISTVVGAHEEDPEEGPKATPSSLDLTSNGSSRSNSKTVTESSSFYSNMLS
T3 sequence (P30547 whole entry): as above
T1 sequence (P30547 whole entry): as above

COc1ccccc1CN[C@H]1C2CCN(CC2)[C@H]1C(c1ccccc1)c1ccccc1 [CP-96,345]
NK1 receptor affinity or activity, in words (NK1 receptor [1]): antagonists at the NK1 receptor

C[C@H](NC(=O)[C@@](C)(Cc1c[nH]c2ccccc12)NC(=O)OCc1ccccc1)c1ccccc1 [Example 15]
Kb [2]: 15.8 nM
IC50 (NK1 receptor [3]): 36 nM
Kb [4]: 39.8 nM
NK1 receptor antagonism, in words (NK1 receptor [5]; listed as Ex. 15): antagonist of the NK1 receptor; also recorded: tachykinin NK1 receptor antagonist
Kb (NK1 receptor [5]; read-out: pKB against substance-P methylester on these tissues (converted)): ~10 nM

CN(Cc1ccccc1)C(=O)[C@H](Cc1ccc2ccccc2c1)NC(=O)[C@@H]1C[C@@H](O)CN1C(=O)c1cn(C)c2ccccc12 [FK 888]
NK1 receptor affinity or activity, in words (NK1 receptor [1]): high affinity for the NK1 receptor

COc1ccccc1CC(=N)N1C[C@@H]2C(=O)CCC(c3ccccc3)(c3ccccc3)[C@@H]2C1 [RP 67580]
NK1 receptor affinity or activity, in words (NK1 receptor [1]): antagonists at the NK1 receptor

CC(=O)NC1(c2ccccc2)CCN(CC[C@H](CN(C)C(=O)c2ccccc2)c2ccc(Cl)c(Cl)c2)CC1 [SR 48969]
NK2 receptor affinity or selectivity, in words (NK2 receptors): high affinity and selectivity for NK2 receptors

NKA: mammalian tachykinin neuropeptide
NK2 receptor affinity or selectivity, in words (NK2 receptors): bind preferentially to NK2

NKB: mammalian tachykinin neuropeptide
NK3 receptor binding, in words (NK3 receptors): bind preferentially

Substance-P
NK1 receptor affinity or activity, in words (NK1 receptor [1]): highest affinity for NK1 receptors
